In this assay the target is T1, human TRPC6 (Homo sapiens, UniProt Q9Y210).
T1 construct: expressed in transfected cells
T1 sequence (Q9Y210 1-931): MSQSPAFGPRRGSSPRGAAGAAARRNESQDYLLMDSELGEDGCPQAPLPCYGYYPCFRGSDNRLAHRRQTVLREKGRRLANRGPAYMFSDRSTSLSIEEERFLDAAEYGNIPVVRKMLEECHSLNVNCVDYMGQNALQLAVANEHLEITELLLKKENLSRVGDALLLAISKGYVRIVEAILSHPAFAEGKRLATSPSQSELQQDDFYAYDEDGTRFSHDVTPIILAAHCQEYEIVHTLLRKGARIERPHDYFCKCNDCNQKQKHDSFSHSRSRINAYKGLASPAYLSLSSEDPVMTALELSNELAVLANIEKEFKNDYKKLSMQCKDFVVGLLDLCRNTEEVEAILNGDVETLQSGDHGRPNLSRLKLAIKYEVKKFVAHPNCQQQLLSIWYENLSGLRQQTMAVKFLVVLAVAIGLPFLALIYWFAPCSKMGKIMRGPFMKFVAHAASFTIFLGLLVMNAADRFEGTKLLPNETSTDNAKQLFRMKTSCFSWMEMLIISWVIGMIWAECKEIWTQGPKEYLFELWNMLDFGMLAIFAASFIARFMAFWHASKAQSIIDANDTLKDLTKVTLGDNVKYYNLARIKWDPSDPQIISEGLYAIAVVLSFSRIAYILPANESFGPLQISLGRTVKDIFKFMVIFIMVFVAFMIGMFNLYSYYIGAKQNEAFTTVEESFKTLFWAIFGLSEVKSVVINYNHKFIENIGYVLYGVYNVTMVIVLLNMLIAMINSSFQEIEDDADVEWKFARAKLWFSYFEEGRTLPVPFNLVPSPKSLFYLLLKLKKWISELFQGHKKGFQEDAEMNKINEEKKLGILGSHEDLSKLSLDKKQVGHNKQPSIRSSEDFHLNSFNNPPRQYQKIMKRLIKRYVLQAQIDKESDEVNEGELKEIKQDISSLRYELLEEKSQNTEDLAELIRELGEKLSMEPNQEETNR
Put plainly: TRPC6 calcium flux assay (FLIPR, OAG-stimulated calcium influx). The assay is classed as cell-based. As to conditions: HEK293 cells stably transfected with human TRPC6, read-out: hTRPC6 Potency. The method, boiled down: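 IC50 derived by plotting background-corrected peak fluorescence (180 s window, normalized to OAG-triggered signal vs buffer) against dose. Stable human TRPC6 HEK293 line was dye-loaded, exposed to compound 25 min, then challenged with 50 uM final OAG in 2 mM Ca2+ HEPES buffer pH 7.2, 0.5% DMSO.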
Background: A change in cytosolic calcium serves as a functional read-out for many receptors and channels.

For 25 compounds, IC50 results are on record in patent US11332459B2 (TEIJIN PHARMA LIMITED, priority 2017, dated 2022).

pIC50: −log10 of the molar value. Counter-ions that a name gives are not always drawn.

As to `N#Cc1ccc(Cn2c(N3CC[C@@H]4CCN[C@@H]4C3)nc3ccccc32)nc1` [Example 24, 6-((2-((3aS,7aS)-hexahydro-1H-pyrrolo[2,3-c]pyridin-6(2H)-yl)-1H-benzo[d]imidazol-1-yl)methyl)nicotinonitrile], the pIC50 was 6.84.
Take `N#Cc1ccc(Cn2c(N3CCC4CCN[C@@H]4C3)nc3ccccc32)nc1` (stereo partly drawn) [Example 25, 6-((2-((3aS,7aS)-hexahydro-1H-pyrrolo[2,3-c]pyridin-6(2H)-yl)-1H-benzo[d]imidazol-1-yl)methyl)nicotinonitrile]: the pIC50 is 6.68.
Consider `N#Cc1ccc(Cn2c(N3CCC4CCN[C@H]4C3)nc3ccccc32)nc1` (stereo partly drawn) [Example 26, 6-((2-((3aS,7aR)-hexahydro-1H-pyrrolo[2,3-c]pyridin-6(2H)-yl)-1H-benzo[d]imidazol-1-yl)methyl)nicotinointrile], for which the pIC50 was 6.79.
Under `N#Cc1ccc(Cn2c(N3CCC[C@@]4(CCN4)C3)nc3ccccc32)nc1` [Example 27, (R)-6-((2-(1,6-diazaspiro[3.5]nonan-6-yl)-1H-benzo[d]imidazol-1-yl)methyl)nicotinointrile] stands 7.13; under `N#Cc1ccc(Cn2c(N3CCC[C@]4(CCN4)C3)nc3ccccc32)nc1` [Example 28, (S)-6-((2-(1,6-diazaspiro[3.5]nonan-6-yl)-1H-benzo[d]imidazol-1-yl)methyl)nicotinonitrile], < 5.43.
`CS(=O)(=O)c1ccc2nc(N3CC[C@@H](F)[C@H](N)C3)n(Cc3ccc(Cl)cn3)c2c1` [Example 29, (3R,4R)-1-(1-((5-chloropyridin-2-yl)methyl)-6-(methylsulfonyl)-1H-benzo[d]imidazol-2-yl)-4-fluoropiperidin-3-amine]: the pIC50 is 7.35.
For `CS(=O)(=O)c1ccc2c(c1)nc(N1CC[C@@H](F)[C@H](N)C1)n2Cc1ccc(Cl)cn1` [Example 30, (3R,4R)-1-(1-((5-chloropyridin-2-yl)methyl)-5-(methylsulfonyl)-1H-benzo[d]imidazol-2-yl)-4-fluoropiperidin-3-amine] the value was 5.71.
`N#Cc1cc(F)cc2c1nc(N1CC[C@@H](F)[C@H](N)C1)n2Cc1ncc(Cl)cn1` [Example 31, 2-((3R,4R)-3-amino-4-fluoropiperidin-1-yl)-1-((5-chloropyrimidin-2-yl)methyl)-6-fluoro-1H-benzo[d]imidazole-4-carbonitrile]: the pIC50 is 9.32.
Turning to `N[C@@H]1CN(c2nc3cc(F)cc(F)c3n2Cc2ccc(F)cn2)CC[C@H]1F` [Example 32, (3R,4R)-1-(5,7-difluoro-1-((5-fluoropyridin-2-yl)methyl)-1H-benzo[d]imidazol-2-yl)-4-fluoropiperidin-3-amine], the pIC50 was 7.33.
With `N[C@@H]1CN(c2nc3c(F)cc(F)cc3n2Cc2ccc(F)cn2)CC[C@H]1F` [Example 33, (3R,4R)-1-(4,6-difluoro-1-((5-fluoropyridin-2-yl)methyl)-1H-benzo[d]imidazol-2-yl)-4-fluoropiperidin-3-amine], the pIC50 was 9.36.
For the compound `N[C@@H]1CN(c2nc3cc(F)cc(F)c3n2Cc2ncc(F)cn2)CC[C@H]1F` [Example 34, (3R,4R)-1-(5,7-difluoro-1-((5-fluoropyrimidin-2-yl)methyl)-1H-benzo[d]imidazol-2-yl)-4-fluoropiperidin-3-amine], the pIC50 is 7.16.
For `N[C@@H]1CN(c2nc3c(F)cc(F)cc3n2Cc2ncc(F)cn2)CC[C@H]1F` [Example 35, (3R,4R)-1-(4,6-difluoro-1-((5-fluoropyrimidin-2-yl)methyl)-1H-benzo[d]imidazol-2-yl)-4-fluoropiperidin-3-amine] the value was 9.31; for `N#Cc1cc(F)cc2c1nc(N1CC[C@H](F)[C@H](N)C1)n2Cc1ncc(F)cn1` [Example 36, 2-((3R,4S)-3-amino-4-fluoropiperidin-1-yl)-6-fluoro-1-((5-fluoropyrimidin-2-yl)methyl)-1H-benzo[d]imidazole-4-carbonitrile], 8.21; for `N#Cc1cc(F)cc2c1nc(N1CC[C@@H](F)[C@H](N)C1)n2Cc1ncc(F)cn1` [Example 37, 2-((3R,4R)-3-amino-4-fluoropiperidin-1-yl)-6-fluoro-1-((5-fluoropyrimidin-2-yl)methyl)-1H-benzo[d]imidazole-4-carbonitrile], 8.16.
Take `N#Cc1ccc(Cn2c(N3CC[C@@H](F)[C@H](N)C3)nc3ccccc32)nc1` [Example 38, 6-((2-((3R,4R)-3-amino-4-fluoropiperidin-1-yl)-1H-benzo[d]imidazol-1-yl)methyl)nicotinonitrile]: the pIC50 is 9.14.
Turning to `N[C@@H]1CN(c2nc3ccc(F)cc3n2Cc2ncc(Cl)cn2)CC[C@@H]1F` [Example 39, (3R,4S)-1-(1-((5-chloropyrimidin-2-yl)methyl)-6-fluoro-1H-benzo[d]imidazol-2-yl)-4-fluoropiperidin-3-amine], the pIC50 was 9.06.
In the case of `N[C@@H]1CN(c2nc3cc(F)ccc3n2Cc2ncc(Cl)cn2)CC[C@@H]1F` [Example 40, (3R,4S)-1-(1-((5-chloropyrimidin-2-yl)methyl)-5-fluoro-1H-benzo[d]imidazol-2-yl)-4-fluoropiperidin-3-amine], the pIC50 was 8.34.
On to `N#Cc1ccc2nc(N3CCC(F)(F)[C@H](N)C3)n(Cc3ncc(Cl)cn3)c2c1` [Example 41, (R)-2-(3-amino-4,4-difluoropiperidin-1-yl)-1-((5-chloropyrimidin-2-yl)methyl)-1H-benzo[d]imidazole-6-carbonitrile], for which the pIC50 is 7.74.
For the compound `N#Cc1ccc2c(c1)nc(N1CCC(F)(F)[C@H](N)C1)n2Cc1ncc(Cl)cn1` [Example 42, (R)-2-(3-amino-4,4-difluoropiperidin-1-yl)-1-((5-chloropyrimidin-2-yl)methyl)-1H-benzo[d]imidazole-5-carbonitrile], the pIC50 is 5.71.
In the case of `N#Cc1ccc(Cn2c(N3CC[C@@H](F)[C@H](N)C3)nc3cc(Cl)c(Cl)cc32)nc1` [Example 43, 6-((2-((3R,4R)-3-amino-4-fluoropiperidin-1-yl)-5,6-dichloro-1H-benzo[d]imidazol-1-yl)methyl)nicotinonitrile], the pIC50 was 9.24.
Consider `Cc1cc2nc(N3CC[C@@H](F)[C@H](N)C3)n(Cc3ccc(C#N)cn3)c2cc1C` [Example 44], for which the pIC50 was 9.02.
On to `N#Cc1ccc(Cn2c(N3CCC[C@H](N)C3)nc3ccc(F)cc32)nc1` [Example 45, (S)-6-((2-(3-aminopiperidin-1-yl)-6-fluoro-1H-benzo[d]imidazol-1-yl)methyl)nicotinonitrile hydrochloride], for which the pIC50 was 8.63.
Consider `N#Cc1ccc(Cn2c(N3CCC[C@H](N)C3)nc3cc(F)ccc32)nc1` [Example 46, (S)-6-((2-(3-aminopiperidin-1-yl)-5-fluoro-1H-benzo[d]imidazol-1-yl)methyl)nicotinonitrile hydrochloride], for which the pIC50 was 8.75.
For `N#Cc1ccc(Cn2c(N3CC[C@H](F)[C@H](N)C3)nc3ccc(F)cc32)nc1` [Example 47, 6-((2-((3R,4S)-3-amino-4-fluoropiperidin-1-yl)-6-fluoro-1H-benzo[d]imidazol-1-yl)methyl)nicotinonitrile hydrochloride] the value was 9.16; for `N#Cc1ccc(Cn2c(N3CC[C@H](F)[C@H](N)C3)nc3cc(F)ccc32)nc1` [Example 48, 6-((2-((3R,4S)-3-amino-4-fluoropiperidin-1-yl)-5-fluoro-1H-benzo[d]imidazol-1-yl)methyl)nicotinonitrile hydrochloride], 8.66.
